From paper PMC12320831, “Synthesis and Biological Evaluation of New Chalcogen Semicarbazone (S, Se) and Their Azole Derivatives against Chagas Disease” (Journal of Medicinal Chemistry, 2024)
“And” between values parts separate entries of the source, which are not always exact repeats. Equal values may be shown once. Read-outs that look alike come from different tables or passages of the source.

What was measured:
[1] = test system: T. cruzi CAI/72 strain; assay: Antiparasitic activity in C2C12 cells infected with T. cruzi CAI/72 (image-based assay); type: cell-based; settings: for EC50: read-out: EC50 Tc CAI/72, intracellular amastigotes in C2C12 cells, 48 h, mean of three experiments in triplicate (n = 9) ± SD
[2] = molecular target: T1, Recombinant human cathepsin L (hCatL) (Homo sapiens, UniProt P07711); assay: Human cathepsin L inhibition assay (Z-FR-AMC substrate); type: biochemical
T1 construct: purchased R&D Systems 952-CY
Protocol: Compounds were screened at 10 μM. […] The experiment was performed for 30 min.
All experiments were accomplished in a 384-well black microplate, using a Synergy HTX (Biotek) plate reader at 25 °C with absorption/emission wavelengths of 360/460 nm. All assays were performed in triplicate wells and DMSO was used as a vehicle control. Enzymatic activity was measured and normalized to DMSO controls, and the inhibitor E-64 (10 μM) was used as a positive control for all assays. All experiments were performed in triplicates, with at least two independent assays (n = 6 data points). IC50 values were determined through nonlinear regression. Obtained data were treated and analyzed using GraphPad Prism 9.0 (GraphPad Software, La Jolla, California).

T1 sequence (P07711 114-333): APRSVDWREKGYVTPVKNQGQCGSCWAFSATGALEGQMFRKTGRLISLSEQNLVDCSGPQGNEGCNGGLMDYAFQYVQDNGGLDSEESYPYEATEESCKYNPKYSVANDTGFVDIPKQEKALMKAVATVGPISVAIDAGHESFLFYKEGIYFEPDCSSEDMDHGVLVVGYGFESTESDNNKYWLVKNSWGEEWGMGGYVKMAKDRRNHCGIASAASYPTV

C/C(=N\Nc1nc(C)c[se]1)c1cccc([N+](=O)[O-])c1.Cl [Se2h, (E)-4-Methyl-2-(2-(1-(3-nitrophenyl)ethylidene)hydrazineyl)-1,3-selenazole Hydrochloride]
inhibition at 10 µM ([1]; Trypanosoma cruzi, C2C12, read-out: Anti-Tc CAI/72 activity (%)): 57.7% | EC50 [1]: 310 ± 180 nM | EC50 ([1]; listed as Se 2h): < 1000 nM | inhibition at 10 µM ([2]; 10 µM): 92.2% | IC50 ([2]; each of two biological replicates in triplicate, read-out: IC50 hCatL, single biological replicate (Figure 4)): 1320 nM and 1360 nM | IC50 ([2]; mean of two experiments in triplicate (n = 6) ± SEM, read-out: IC50 hCatL): 1340 ± 18 nM
